Results on 2 compounds are retold here after US12668589B2, “N-formamidopyrazoline derivative as P2X3 receptor antagonist and use thereof” (HANGZHOU WESTAN PHARMACEUTICAL TECHNOLOGY CO., LTD, priority 2020, dated 2026).

The term IC50 denotes the concentration at which inhibition is half-maximal.

Data set [1] deals with T1, human PAR-1 (Homo sapiens, UniProt P25116).
T1 construct: host or cells: HEK293/Ga15 recombinant cell line
T1 sequence (P25116 22-425): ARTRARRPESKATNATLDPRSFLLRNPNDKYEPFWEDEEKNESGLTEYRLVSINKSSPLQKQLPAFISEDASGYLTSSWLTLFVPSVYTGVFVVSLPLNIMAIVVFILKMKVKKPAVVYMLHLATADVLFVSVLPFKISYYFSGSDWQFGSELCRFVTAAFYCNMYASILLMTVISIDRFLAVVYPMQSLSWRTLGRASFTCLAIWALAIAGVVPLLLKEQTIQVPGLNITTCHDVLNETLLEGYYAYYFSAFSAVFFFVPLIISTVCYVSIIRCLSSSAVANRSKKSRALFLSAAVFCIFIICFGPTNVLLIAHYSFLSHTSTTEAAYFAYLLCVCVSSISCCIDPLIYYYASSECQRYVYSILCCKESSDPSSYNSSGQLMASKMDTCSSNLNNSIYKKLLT
Description: Inhibitory activity against PAR-1, calcium ion flux fluorescence method (FLIPR). Format: cell-based. The conditions noted are these: HEK293/Ga15 cells expressing human PAR-1, TFLLR-NH2 10 μM, starting concentration 30 μM. As to the method:
The inhibitory activity of the title compounds against human PAR-1 was determined by a calcium ion flux fluorescence method (an FLIPR method). The method thereof was reported in the literature of Zhong et al. [Zhong et al. J Biomol Struct Dyn, 2017, 35(13):2853].
An HEK293/Ga15 recombinant cell line (HD Biosciences, Shanghai, China) stably expressing human PAR-1 was cultured in a DMEM (Thermo Fisher Scientific, Shanghai) culture solution (containing 10% calf serum, 800 μg/mL G418). Incubator conditions were 37° C. and an air humidity with 5% CO2.
On the first day, 20 μL per well of PAR-1 cells at a concentration of 4E+5 cells/mL were seeded in a 384-well analysis plate (Corning 3712). […] On the second day, a culture solution in each well was poured off. Then, 20 μL of 1×loading dye (2 μM Fluo-8 AM in 1×HBSS with 20 mM HEPES, 1 mM Probenecid, 0.025% Pluronic F-127 assay buffer) was added in each well. The cell analysis plate was cultured for 1 hour at a room temperature.
The compounds were dissolved into 100% DMSO to prepare a 10 mM stock solution, which was stored at −20° C. On the day of use, the compound stock solution was thawed at a room temperature. Each compound was subjected to 1:3 serial dilution at 11 concentration points with a DMEM culture solution with a starting concentration of 30 μM. Each compound was subjected to double dilution for testing. A positive control compound was diluted in the same way with SCH79797 with a starting concentration of 30 μM.
The cell analysis plate was placed in a FLIPR instrument (Molecular Device) and 10 μL of compounds (3× of a final concentration) in a compound plate was added to corresponding wells of the cell analysis plate. After 10 minutes, 10 μL of TFLLR-NH2 (TFA) (a final concentration of 10 μM) was added to each well to stimulate generation of intracellular calcium flux signals. Ca^++-dependent fluorescence signals were continuously monitored at excitation wavelengths of 470/495 nm and emission wavelengths of 515/575 nm to analyze the inhibitory activity of the compounds.
Data were collected and analyzed by using an FLIPR program. The inhibitory (or agonistic) activity of the compounds at each concentration was assessed by fluorescence peaks. IC50 values of the compounds were calculated by using EXCEL and PRISM programs.

Data set [2] in a line: Stability in simulated gastric fluids and simulated intestinal fluids. The conditions noted are these: 1.25 μM, 37° C., up to 5 hours, pH 1.3 with pepsin / pH 6.8 with trypsin; result in words. Format: in vitro ADME. As to the method:
An LC-MS/MS method, wherein A liquid phase method adopts a gradient elution method. Chromatographic Column: ACQUITY UPLC® BEH C18 (2.1 mm×50 mm, 1.7 μm); Flow Rate: 0.35 mL/min; Injection Volume: 1 μL; Column Temperature: 40° C.; Automatic Sampler Temperature: 10° C.; Mobile Phase Compositions: mobile phase A: 0.1% formic acid water, and mobile phase B: acetonitrile. Mass spectrometry conditions adopt an ESI source, and positive ion and multiple reaction monitoring (MRM) modes were used for mass spectrometry analysis.
Simulated gastric fluid and simulated intestinal fluid samples were taken, in which 1,200 μL of an acetonitrile solution containing an internal standard (5 ng/mL loratadine) was added. Even vortex mixing was conducted at 2,500 rpm. Centrifuging was conducted for 10 minutes at 20,000 rcf at 4° C. […] Contents of prototype drugs were detected by LC-MS/MS. […]
MassLynx V4.2 software was used for data collecting. After integration parameters were optimized, target chromatographic peaks were automatically integrated, individual chromatographic peaks were not allowed to be integrated separately or manually, and retention time and a peak area were calculated. Data was collected by MassLynx V4.2, and subjected to integration processing to obtain the retention time and the peak area, and a peak area ratio of an analyte to an internal standard was calculated. […]

Each structure is given as a SMILES string.

Consider `CCOC(=O)N(C)[C@H]1CN(C(=O)N[C@H](C)c2cnc(C(F)(F)F)nc2)N=C1c1ccc(C)cc1` [Compound 4, (S)-4-(N-methyl-N-ethoxycarbonylamino)-3-(4-methylphenyl)-N-((R)-1-(2-(trifluoromethyl)pyrimidin-5-yl)ethyl)-4,5-dihydro-1H-pyrazol-1-carboxamide], for which the IC50 in data set [1] is more than 30 µM. In addition, in data set [2], the “stability in artificial gastric and intestinal fluids” value is “relatively stable”.
As for `Cc1ccc(C2=NN(C(=O)N[C@H](C)c3ccc(C(F)(F)F)nc3)C[C@@H]2N2CCOC2=O)cc1` [Compound 22], the IC50 in data set [1] is more than 30 µM. Moreover, the “stability in artificial gastric and intestinal fluids” value in data set [2] is “relatively stable”.
